According to US6737383B1, “Herbicidal oxadiazolidines” (priority 1999, dated 2004):

Legend:
bedstraw = test: Test B pre/postemergence bedstraw; format: in vivo, Galium aparine
In short: (§1)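 Response is a visual 0-to-10 score relative to untreated plants, where 0 means no effect and 10 means complete control, taken twelve to sixteen days after application. Treatments went onto soil at planting and onto foliage of 1- to 4-leaf plants, using a surfactant-containing non-phytotoxic solvent.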

blackgrass = test: Test B pre/postemergence blackgrass; format: in vivo, Alopecurus myosuroides
In short: as §1

surinam grass = test: Test B pre/postemergence surinam grass; format: in vivo, Brachiaria decumbens
In short: as §1

cocklebur = test: Test B pre/postemergence cocklebur; format: in vivo, Xanthium strumarium
In short: as §1

corn = test: Test B pre/postemergence corn; format: in vivo, Zea mays
In short: as §1

crabgrass = test: Test B pre/postemergence crabgrass; format: in vivo, Digitaria sanguinalis
In short: as §1

giant foxtail = test: Test B pre/postemergence giant foxtail; format: in vivo, Setaria faberii
In short: as §1

rape = test: Test B pre/postemergence rape; format: in vivo, Brassica napus
In short: as §1

soybean = test: Test B pre/postemergence soybean; format: in vivo, Glycine max
In short: as §1

sugar beet = test: Test B pre/postemergence sugar beet; format: in vivo, Beta vulgaris
In short: as §1

velvetleaf = test: Test B pre/postemergence velvetleaf; format: in vivo, Abutilon theophrasti
In short: as §1

wheat = test: Test B pre/postemergence wheat; format: in vivo, Triticum aestivum
In short: as §1

purple nutsedge = test: Test B pre/postemergence purple nutsedge; format: in vivo, Cyperus rotundus
In short: as §1

rice = test: Test B flood test rice; format: in vivo, Oryza sativa
In short: (§2)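 Read-out is a visual response score from 0 (no effect) to 10 (complete control), assigned by comparison with untreated controls. Treatment was applied at the 2-leaf stage, and plants stayed in the greenhouse for twelve to sixteen days before scoring.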

smallflower flatsedge = test: Test B flood test smallflower flatsedge; format: in vivo, Cyperus difformis
In short: as §2

duck salad = test: Test B flood test duck salad; format: in vivo, Heteranthera limosa
In short: as §2

bamyardgrass = test: Test B flood test barnyardgrass; format: in vivo, Echinochloa crus-galli
In short: as §2

[1] = Preemergence, Rate 62 g/ha, scale of 0 to 10 where 0 is no effect and 10 is complete control
[2] = Preemergence, Rate 250 g/ha, scale of 0 to 10 where 0 is no effect and 10 is complete control
[3] = Preemergence, Rate 500 g/ha, scale of 0 to 10 where 0 is no effect and 10 is complete control
[4] = Rate 62 g/ha, Postemergence, scale 0 to 10 (0 no effect, 10 complete control)
[5] = Rate 125 g/ha, Postemergence, scale of 0 to 10 where 0 is no effect and 10 is complete control
[6] = Rate 125 g/ha, Preemergence, scale of 0 to 10 where 0 is no effect and 10 is complete control
[7] = Rate 250 g/ha, Postemergence, scale of 0 to 10 where 0 is no effect and 10 is complete control
[8] = Rate 500 g/ha, Postemergence, scale 0 to 10, 0 no effect, 10 complete control
[9] = Rate 62 g/ha, headed Pre-emergence (flood test species), scale 0 to 10 (0 no effect, 10 complete control)
[10] = Rate 125 g/ha, Pre-emergence, flood test species, scale 0 to 10 where 0 is no effect and 10 is complete control
[11] = Rate 250 g/ha, Pre-emergence, flood-test species, scale 0 to 10, 0 is no effect, 10 is complete control
[12] = Rate 500 g/ha, Pre-emergence, flood test species, scale 0 to 10 (0 no effect, 10 complete control)

Compound: CC(C)N(C(=O)n1oc(=O)n(C[Si](C)(C)C)c1=O)c1ccc(F)cc1 [Compound 294]
- Bedstraw plant response rating (bedstraw; [1]): 0
- Bedstraw plant response rating (bedstraw; [2]): 0
- Plant response rating, Bedstraw (bedstraw; [3]): 0
- Bedstraw plant response rating (bedstraw; [4]): 3
- Bedstraw plant response rating (bedstraw; [5]): 6
- Bedstraw plant response rating (bedstraw; [6]): 0
- Plant response rating, Bedstraw (bedstraw; [7]): 8
- Bedstraw plant response rating (bedstraw; [8]): 9
- Blackgrass plant response rating (blackgrass; [1]): 0
- Blackgrass plant response rating (blackgrass; [2]): 6
- Plant response rating, Blackgrass (blackgrass; [3]): 10
- Blackgrass plant response rating (blackgrass; [4]): 0
- Blackgrass plant response rating (blackgrass; [5]): 0
- Blackgrass plant response rating (blackgrass; [6]): 3
- Plant response rating, Blackgrass (blackgrass; [7]): 7
- Blackgrass plant response rating (blackgrass; [8]): 8
- B. signalgrass plant response rating (surinam grass; [1]): 0
- B. signalgrass plant response rating (surinam grass; [2]): 7
- Plant response rating, B. signalgrass (surinam grass; [3]): 9
- B. signalgrass plant response rating (surinam grass; [4]): 0
- B. signalgrass plant response rating (surinam grass; [5]): 0
- B. signalgrass plant response rating (surinam grass; [6]): 7
- Plant response rating, B. signalgrass (surinam grass; [7]): 0
- B. signalgrass plant response rating (surinam grass; [8]): 0
- Cocklebur plant response rating (cocklebur; [1]): 0
- Cocklebur plant response rating (cocklebur; [2]): 0
- Cocklebur plant response rating (cocklebur; [4]): 0
- Cocklebur plant response rating (cocklebur; [5]): 0
- Cocklebur plant response rating (cocklebur; [6]): 0
- Plant response rating, Cocklebur (cocklebur; [7]): 0
- Cocklebur plant response rating (cocklebur; [8]): 0
- Corn plant response rating (corn; [1]): 0
- Corn plant response rating (corn; [2]): 0
- Plant response rating, Corn (corn; [3]): 2
- Corn plant response rating (corn; [4]): 0
- Corn plant response rating (corn; [5]): 0
- Corn plant response rating (corn; [6]): 0
- Plant response rating, Corn (corn; [7]): 0
- Corn plant response rating (corn; [8]): 0
- Crabgrass plant response rating (crabgrass; [1]): 1
- Crabgrass plant response rating (crabgrass; [2]): 9
- Plant response rating, Crabgrass (crabgrass; [3]): 10
- Crabgrass plant response rating (crabgrass; [4]): 0
- Crabgrass plant response rating (crabgrass; [5]): 0
- Crabgrass plant response rating (crabgrass; [6]): 9
- Plant response rating, Crabgrass (crabgrass; [7]): 2
- Giant foxtail plant response rating (giant foxtail; [1]): 7
- Giant foxtail plant response rating (giant foxtail; [2]): 10
- Plant response rating, Giant foxtail (giant foxtail; [3]): 10
- Giant foxtail plant response rating (giant foxtail; [4]): 0
- Giant foxtail plant response rating (giant foxtail; [5]): 0
- Giant foxtail plant response rating (giant foxtail; [6]): 9
- Plant response rating, Giant foxtail (giant foxtail; [7]): 2
- Rape plant response rating (rape; [1]): 0
- Rape plant response rating (rape; [2]): 0
- Plant response rating, Rape (rape; [3]): 3
- Rape plant response rating (rape; [4]): 0
- Rape plant response rating (rape; [5]): 0
- Rape plant response rating (rape; [6]): 0
- Plant response rating, Rape (rape; [7]): 2
- Soybean plant response rating (soybean; [1]): 0
- Soybean plant response rating (soybean; [2]): 0
- Plant response rating, Soybean (soybean; [3]): 0
- Soybean plant response rating (soybean; [4]): 2
- Soybean plant response rating (soybean; [5]): 3
- Soybean plant response rating (soybean; [6]): 0
- Plant response rating, Soybean (soybean; [7]): 4
- Sugarbeets plant response rating (sugar beet; [1]): 0
- Sugarbeets plant response rating (sugar beet; [2]): 0
- Plant response rating, Sugarbeets (sugar beet; [3]): 2
- Sugarbeets plant response rating (sugar beet; [4]): 0
- Sugarbeets plant response rating (sugar beet; [5]): 0
- Sugarbeets plant response rating (sugar beet; [6]): 0
- Plant response rating, Sugarbeets (sugar beet; [7]): 0
- Velvetleaf plant response rating (velvetleaf; [1]): 0
- Velvetleaf plant response rating (velvetleaf; [2]): 3
- Plant response rating, Velvetleaf (velvetleaf; [3]): 4
- Velvetleaf plant response rating (velvetleaf; [4]): 0
- Velvetleaf plant response rating (velvetleaf; [5]): 0
- Velvetleaf plant response rating (velvetleaf; [6]): 0
- Plant response rating, Velvetleaf (velvetleaf; [7]): 0
- Wheat plant response rating (wheat; [1]): 0
- Wheat plant response rating (wheat; [2]): 0
- Plant response rating, Wheat (wheat; [3]): 0
- Wheat plant response rating (wheat; [4]): 0
- Wheat plant response rating (wheat; [5]): 0
- Wheat plant response rating (wheat; [6]): 0
- Plant response rating, Wheat (wheat; [7]): 0
- Nutsedge plant response rating (purple nutsedge; [1]): 0
- Nutsedge plant response rating (purple nutsedge; [2]): 0
- Plant response rating, Nutsedge (purple nutsedge; [3]): 0
- Nutsedge plant response rating (purple nutsedge; [4]): 0
- Nutsedge plant response rating (purple nutsedge; [5]): 0
- Nutsedge plant response rating (purple nutsedge; [6]): 0
- Plant response rating, Nutsedge (purple nutsedge; [7]): 0
- Rice plant response rating (rice; [9]): 0
- Rice plant response rating (rice; [10]): 0
- Rice plant response rating (rice; [11]): 0
- Rice plant response rating (rice; [12]): 0
- S. Flatsedge plant response rating (smallflower flatsedge; [9]): 0
- S. Flatsedge plant response rating (smallflower flatsedge; [10]): 0
- S. Flatsedge plant response rating (smallflower flatsedge; [11]): 0
- S. Flatsedge plant response rating (smallflower flatsedge; [12]): 4
- Ducksalad plant response rating (duck salad; [9]): 0
- Ducksalad plant response rating (duck salad; [10]): 0
- Ducksalad plant response rating (duck salad; [11]): 0
- Ducksalad plant response rating (duck salad; [12]): 0
- Barnyardgrass plant response rating (bamyardgrass; [9]): 0
- Barnyardgrass plant response rating (bamyardgrass; [10]): 3
- Barnyardgrass plant response rating (bamyardgrass; [11]): 9
- Barnyardgrass plant response rating (bamyardgrass; [12]): 9
